Reference: the NIST ThermoML archive (doi:10.1016/j.fluid.2018.05.032)
Several values for one entry are separate records, joined by “and”; a condition that tells them apart may be missing. Equal values may be shown once.

Columns and labels:
[1] = for vapor or sublimation pressure: Closed cell (Static) method
[2] = molar heat capacity at constant pressure; settings: 101.33 kPa, DSC
[3] = Molar enthalpy of transition or fusion; settings: Crystal; DSC

CC(C)NCCO [2-isopropylaminoethanol]
Settings	Normal melting temperature [°C]	molar heat capacity at constant pressure [J/K/mol]	vapor or sublimation pressure
[1], 248.13 K, Metastable liquid	–	–	0.000252 kPa and 0.000251 kPa
[1], 253.14 K, Metastable liquid	–	–	0.000472 kPa
[1], 253.15 K, Crystal	–	–	0.000258 kPa and 0.000257 kPa and 0.000254 kPa
[1], 253.15 K, Metastable liquid	–	–	0.000471 kPa and 0.000472 kPa
[1], 258.14 K, Crystal	–	–	0.000482 kPa and 0.00048 kPa and 0.000479 kPa
[1], 258.15 K, Metastable liquid	–	–	0.000864 kPa
[1], 263.15 K, Crystal	–	–	0.000926 kPa and 0.000923 kPa and 0.000921 kPa
[1], 263.15 K, Metastable liquid	–	–	0.001546 kPa and 0.001544 kPa
[1], 268.14 K, Crystal	–	–	0.00171 kPa and 0.001709 kPa
[1], 268.14 K, Metastable liquid	–	–	0.002688 kPa
[1], 273.14 K, Crystal	–	–	0.00318 kPa and 0.003182 kPa and 0.003174 kPa
[1], 273.14 K, Metastable liquid	–	–	0.004591 kPa
[1], 273.15 K, Metastable liquid	–	–	0.004589 kPa and 0.00459 kPa
[1], 278.14 K, Crystal	–	–	0.005875 kPa and 0.005872 kPa and 0.00587 kPa
[1], 278.14 K, Metastable liquid	–	–	0.007669 kPa and 0.007676 kPa and 0.007665 kPa
[1], 283.14 K, Crystal	–	–	0.01065 kPa and 0.01066 kPa and 0.01068 kPa
[1], 283.14 K, Metastable liquid	–	–	0.01257 kPa
[1], 288.14 K, Crystal	–	–	0.01909 kPa and 0.01911 kPa
[1], 288.15 K, Crystal	–	–	0.0191 kPa
[1], 288.15 K, Metastable liquid	–	–	0.0202 kPa
[1], 293.14 K, Liquid	–	–	0.03179 kPa
[1], 298.11 K, Liquid	–	–	0.04899 kPa
[1], 298.12 K, Liquid	–	–	0.0492 kPa
[1], 298.14 K, Liquid	–	–	0.04914 kPa and 0.04915 kPa
[1], 298.17 K, Liquid	–	–	0.04928 kPa
[1], 303.04 K, Liquid	–	–	0.07439 kPa and 0.0744 kPa and 0.07435 kPa
[1], 303.14 K, Liquid	–	–	0.0747 kPa and 0.07469 kPa and 0.07473 kPa
[1], 308.01 K, Liquid	–	–	0.1111 kPa
[1], 308.03 K, Liquid	–	–	0.1112 kPa
[1], 308.04 K, Liquid	–	–	0.1112 kPa
[1], 308.14 K, Liquid	–	–	0.1119 kPa
[1], 308.15 K, Liquid	–	–	0.1119 kPa and 0.1118 kPa
[1], 313 K, Liquid	–	–	0.164 kPa
[1], 313.01 K, Liquid	–	–	0.1642 kPa
[1], 317.9 K, Liquid	–	–	0.2372 kPa and 0.2373 kPa
[1], 322.97 K, Liquid	–	–	0.3405 kPa
[1], 322.98 K, Liquid	–	–	0.3407 kPa
[1], 327.95 K, Liquid	–	–	0.4814 kPa and 0.4815 kPa
[1], 332.99 K, Liquid	–	–	0.6731 kPa and 0.6728 kPa
[1], 337.93 K, Liquid	–	–	0.9221 kPa and 0.9223 kPa
[1], 342.94 K, Liquid	–	–	1.257 kPa
[1], Crystal, DTA	16	–	–
[2], 265 K, Metastable liquid	–	240.4	–
[2], 270 K, Metastable liquid	–	243.1	–
[2], 275 K, Metastable liquid	–	245.8	–
[2], 280 K, Metastable liquid	–	248.5	–
[2], 285 K, Metastable liquid	–	251	–
[2], 290 K, Liquid	–	253.8	–
[2], 295 K, Liquid	–	256.9	–
[2], 300 K, Liquid	–	260.1	–
[2], 305 K, Liquid	–	263.3	–
[2], 310 K, Liquid	–	266.6	–
[2], 315 K, Liquid	–	270.1	–
[2], 320 K, Liquid	–	273.5	–
[2], 325 K, Liquid	–	277.2	–
[2], 330 K, Liquid	–	280.7	–
[2], 335 K, Liquid	–	284.3	–
[2], 340 K, Liquid	–	287.7	–
[2], 345 K, Liquid	–	291.1	–
[2], 350 K, Liquid	–	294.9	–
[2], 355 K, Liquid	–	298.5	–

Settings	Molar enthalpy of transition or fusion [kcal/mol]
[3]	4.54

CCN(CC)CCO [(diethylamino)ethanol]
Liquid
Settings	molar heat capacity at constant pressure [J/K/mol]	vapor or sublimation pressure
[1], 273.64 K	–	0.03488 kPa and 0.0349 kPa and 0.03489 kPa
[1], 278.14 K	–	0.05131 kPa and 0.05133 kPa
[1], 278.15 K	–	0.05134 kPa
[1], 283.14 K	–	0.07733 kPa
[1], 283.15 K	–	0.07737 kPa
[1], 288.15 K	–	0.1146 kPa
[1], 293.14 K	–	0.167 kPa and 0.1669 kPa
[1], 298.15 K	–	0.2393 kPa
[1], 303.14 K	–	0.3378 kPa and 0.3379 kPa
[1], 303.15 K	–	0.338 kPa
[1], 308.15 K	–	0.4708 kPa and 0.4709 kPa
[2], 265 K	260.6	–
[2], 270 K	263.9	–
[2], 275 K	267.1	–
[2], 280 K	270	–
[2], 285 K	272.8	–
[2], 290 K	275.6	–
[2], 295 K	278.7	–
[2], 300 K	281.8	–
[2], 305 K	284.7	–
[2], 310 K	287.6	–
[2], 315 K	290.5	–
[2], 320 K	293.2	–
[2], 325 K	295.8	–
[2], 330 K	298.2	–
[2], 335 K	300.4	–
[2], 340 K	302.7	–
[2], 345 K	305.1	–
[2], 350 K	307.7	–
[2], 355 K	309.9	–
